From ChEMBL document CHEMBL3507680, “University of Dundee, Gates Library screen for HepG2 cell viability”
Values joined by “and” are separate entries in the source; they are usually repeats but may differ in a detail not shown here. Identical values can stand only once.

How the values were obtained:
[1] = Human HepG2 cell viability assay in 384 well format; format: toxicity, cell-based; parameters: dose 125 nL, time 70.5 hour; cytotoxicity at 70.5 h: concentration not given beside the values; details: HepG2 cells, read-out: Inhibition
[2] = Human HepG2 cell viability dose-response assay; format: toxicity, cell-based

Compound | cytotoxicity at 70.5 h [1] [%] | HILLSLOPE [2] | TOP [2] | pXC50 [2] | BOTTOM [2]
Fc1cccc(Nc2nc(N3CCCC3)nc3c2CNCC3)c1 | 80.4 | 8.053 and 11.8 | 102.5 and 101.7 | 5.055 and 5.01 | 
Cc1n[nH]c(C2CN(CC(=O)NCCC3=CCCCC3)CCO2)n1 (centres undefined) | 76.6 | 0 | 0 | < 4.53 | 0
COCC(NC(=O)c1cn2ccsc2n1)c1ccnn1C (centres undefined) | 97.2 | 0 | 0 | < 4.53 | 0
Cc1noc(CN2CCOC(CN(C)C)C2)n1 (centres undefined) | 70.1 | 0 | 0 | < 4.53 | 0
Cc1ccc(S(=O)(=O)N2C[C@H]3C[C@H](NC(=O)c4cc[nH]n4)[C@H]3C2)cc1 | 61.6 | 0.6106 and 0.5978 | 100 | 5.239 and 5.299 | -15.24 and -16.22
